# In patent US6737383B1, “Herbicidal oxadiazolidines” (priority 1999, dated 2004):
# Tests used:
# velvetleaf = assay: Test B pre/postemergence velvetleaf; format: in vivo, Abutilon theophrasti; settings: for Velvetleaf plant response rating: Postemergence; for Plant response rating, Velvetleaf: Preemergence
# Summary of the method: (§1)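 Response is a visual 0-to-10 score relative to untreated plants, where 0 means no effect and 10 means complete control, taken twelve to sixteen days after application. Treatments went onto soil at planting and onto foliage of 1- to 4-leaf plants, using a surfactant-containing non-phytotoxic solvent.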
# morningglory = assay: Test B pre/postemergence morningglory; format: in vivo, Ipomoea hederacea; settings: for Morningglory plant response rating: Postemergence; for Plant response rating, Morningglory: Preemergence
# Summary of the method: as §1
# rice = assay: Test B flood test rice; format: in vivo, Oryza sativa
# Summary of the method: (§2)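 Read-out is a visual response score from 0 (no effect) to 10 (complete control), assigned by comparison with untreated controls. Treatment was applied at the 2-leaf stage, and plants stayed in the greenhouse for twelve to sixteen days before scoring.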
# surinam grass = assay: Test B pre/postemergence surinam grass; format: in vivo, Brachiaria decumbens; settings: for B. signalgrass plant response rating: Postemergence; for Plant response rating, B. signalgrass: Preemergence
# Summary of the method: as §1
# wheat = assay: Test B pre/postemergence wheat; format: in vivo, Triticum aestivum; settings: for Wheat plant response rating: Postemergence; for Plant response rating, Wheat: Preemergence
# Summary of the method: as §1
# purple nutsedge = assay: Test B pre/postemergence purple nutsedge; format: in vivo, Cyperus rotundus; settings: for Nutsedge plant response rating: Postemergence; for Plant response rating, Nutsedge: Preemergence
# Summary of the method: as §1
# duck salad = assay: Test B flood test duck salad; format: in vivo, Heteranthera limosa
# Summary of the method: as §2
# crabgrass = assay: Test B pre/postemergence crabgrass; format: in vivo, Digitaria sanguinalis; settings: for Crabgrass plant response rating: Postemergence; for Plant response rating, Crabgrass: Preemergence
# Summary of the method: as §1
# soybean = assay: Test B pre/postemergence soybean; format: in vivo, Glycine max; settings: for Soybean plant response rating: Postemergence; for Plant response rating, Soybean: Preemergence
# Summary of the method: as §1
# cocklebur = assay: Test B pre/postemergence cocklebur; format: in vivo, Xanthium strumarium; settings: for Cocklebur plant response rating: Postemergence; for Plant response rating, Cocklebur: Preemergence
# Summary of the method: as §1
# bedstraw = assay: Test B pre/postemergence bedstraw; format: in vivo, Galium aparine; settings: Postemergence
# Summary of the method: as §1
# sugar beet = assay: Test B pre/postemergence sugar beet; format: in vivo, Beta vulgaris; settings: for Sugarbeets plant response rating: Postemergence; for Plant response rating, Sugarbeets: Preemergence
# Summary of the method: as §1
# pigweed = assay: Test B pre/postemergence pigweed; format: in vivo, Amaranthus retroflexus; settings: for Redroot pigweed plant response rating: Postemergence; for Plant response rating, Redroot pigweed: Preemergence
# Summary of the method: as §1
# wild oat = assay: Test B pre/postemergence wild oat; format: in vivo, Avena fatua; settings: for Wild oats plant response rating: Postemergence; for Plant response rating, Wild oats: Preemergence
# Summary of the method: as §1
# smallflower flatsedge = assay: Test B flood test smallflower flatsedge; format: in vivo, Cyperus difformis
# Summary of the method: as §2
# corn = assay: Test B pre/postemergence corn; format: in vivo, Zea mays; settings: for Corn plant response rating: Postemergence; for Plant response rating, Corn: Preemergence
# Summary of the method: as §1
# giant foxtail = assay: Test B pre/postemergence giant foxtail; format: in vivo, Setaria faberii; settings: for Giant foxtail plant response rating: Postemergence; for Plant response rating, Giant foxtail: Preemergence
# Summary of the method: as §1
# bamyardgrass = assay: Test B flood test barnyardgrass; format: in vivo, Echinochloa crus-galli
# Summary of the method: as §2
# blackgrass = assay: Test B pre/postemergence blackgrass; format: in vivo, Alopecurus myosuroides; settings: for Blackgrass plant response rating: Postemergence; for Plant response rating, Blackgrass: Preemergence
# Summary of the method: as §1
# rape = assay: Test B pre/postemergence rape; format: in vivo, Brassica napus; settings: for Rape plant response rating: Postemergence; for Plant response rating, Rape: Preemergence
# Summary of the method: as §1
# [1] = Rate 125 g/ha, scale of 0 to 10 where 0 is no effect and 10 is complete control
# [2] = Rate 500 g/ha, scale of 0 to 10 where 0 is no effect and 10 is complete control
# [3] = Rate 250 g/ha, scale 0 to 10, 0 is no effect, 10 is complete control
# [4] = Rate 500 g/ha, scale 0 to 10, 0 is no effect, 10 is complete control
# [5] = Rate 1000 g/ha, scale 0 to 10 (0 no effect, 10 complete control)
# [6] = Pre-emergence, Rate 1000 g/ha, scale 0 to 10 (0 no effect, 10 complete control)
# [7] = Rate 125 g/ha, under heading Pre-emergence, flood test species, visual evaluation after twelve to sixteen days
# [8] = Rate 250 g/ha, Pre-emergence (flood test species), scale 0 to 10, 0 is no effect, 10 is complete control
# [9] = Rate 500 g/ha, Pre-emergence section of Table B, 0 to 10 scale (0 no effect, 10 complete control)
# [10] = Rate 250 g/ha, scale 0 to 10 (0 no effect, 10 complete control)
smiles,measurement,setting,value
COC(=O)C(CCO)n1c(=O)on(C(=O)N(c2ccccc2)C(C)C)c1=O (centres unmarked) [Compound 678],Velvetleaf plant response rating,velvetleaf; [1],0
same,"Plant response rating, Velvetleaf",velvetleaf; [1],0
same,"Plant response rating, Velvetleaf",velvetleaf; [2],2
same,Velvetleaf plant response rating,velvetleaf; [3],0
same,Velvetleaf plant response rating,velvetleaf; [4],3
same,"Plant response rating, Velvetleaf",velvetleaf; [5],5
same,Morningglory plant response rating,morningglory; [1],6
same,"Plant response rating, Morningglory",morningglory; [1],0
same,"Plant response rating, Morningglory",morningglory; [2],0
same,Morningglory plant response rating,morningglory; [3],6
same,Morningglory plant response rating,morningglory; [4],8
same,"Plant response rating, Morningglory",morningglory; [5],1
same,Rice plant response rating,rice; [6],0
same,"Rice plant response rating (0 to 10 scale, 0 is no effect, 10 is complete control)",rice; [7],0
same,Rice plant response rating,rice; [8],0
same,Rice plant response rating,rice; [9],0
same,B. signalgrass plant response rating,surinam grass; [1],0
same,B. signalgrass plant response rating,surinam grass; [5],4
same,"Plant response rating, B. signalgrass",surinam grass; [1],0
same,"Plant response rating, B. signalgrass",surinam grass; [10],0
same,"Plant response rating, B. signalgrass",surinam grass; [2],0
same,B. signalgrass plant response rating,surinam grass; [3],0
same,B. signalgrass plant response rating,surinam grass; [4],2
same,"Plant response rating, B. signalgrass",surinam grass; [5],0
same,Wheat plant response rating,wheat; [1],0
same,"Plant response rating, Wheat",wheat; [1],0
same,"Plant response rating, Wheat",wheat; [2],0
same,Wheat plant response rating,wheat; [3],0
same,Wheat plant response rating,wheat; [4],0
same,"Plant response rating, Wheat",wheat; [5],0
same,Nutsedge plant response rating,purple nutsedge; [1],0
same,"Plant response rating, Nutsedge",purple nutsedge; [1],0
same,"Plant response rating, Nutsedge",purple nutsedge; [2],0
same,Nutsedge plant response rating,purple nutsedge; [3],0
same,Nutsedge plant response rating,purple nutsedge; [4],0
same,"Plant response rating, Nutsedge",purple nutsedge; [5],0
same,Ducksalad plant response rating,duck salad; [6],0
same,"Ducksalad plant response rating (0 to 10 scale, 0 is no effect, 10 is complete control)",duck salad; [7],0
same,Ducksalad plant response rating,duck salad; [8],0
same,Ducksalad plant response rating,duck salad; [9],0
same,Crabgrass plant response rating,crabgrass; [1],0
same,"Plant response rating, Crabgrass",crabgrass; [1],0
same,"Plant response rating, Crabgrass",crabgrass; [10],0
same,"Plant response rating, Crabgrass",crabgrass; [2],1
same,Crabgrass plant response rating,crabgrass; [3],0
same,Crabgrass plant response rating,crabgrass; [4],6
same,"Plant response rating, Crabgrass",crabgrass; [5],3
same,Soybean plant response rating,soybean; [1],1
same,"Plant response rating, Soybean",soybean; [1],0
same,"Plant response rating, Soybean",soybean; [2],0
same,Soybean plant response rating,soybean; [3],2
same,Soybean plant response rating,soybean; [4],2
same,"Plant response rating, Soybean",soybean; [5],0
same,Cocklebur plant response rating,cocklebur; [1],0
same,Cocklebur plant response rating,cocklebur; [5],3
same,"Plant response rating, Cocklebur",cocklebur; [1],0
same,"Plant response rating, Cocklebur",cocklebur; [10],0
same,"Plant response rating, Cocklebur",cocklebur; [2],0
same,Cocklebur plant response rating,cocklebur; [3],0
same,Cocklebur plant response rating,cocklebur; [4],2
same,"Plant response rating, Cocklebur",cocklebur; [5],0
same,Bedstraw plant response rating,bedstraw; [1],0
same,Bedstraw plant response rating,bedstraw; [5],0
same,Bedstraw plant response rating,bedstraw; [3],0
same,Bedstraw plant response rating,bedstraw; [4],0
same,Sugarbeets plant response rating,sugar beet; [1],0
same,"Plant response rating, Sugarbeets",sugar beet; [1],0
same,"Plant response rating, Sugarbeets",sugar beet; [2],0
same,Sugarbeets plant response rating,sugar beet; [3],0
same,Sugarbeets plant response rating,sugar beet; [4],0
same,"Plant response rating, Sugarbeets",sugar beet; [5],0
same,Redroot pigweed plant response rating,pigweed; [1],0
same,Redroot pigweed plant response rating,pigweed; [5],5
same,"Plant response rating, Redroot pigweed",pigweed; [1],0
same,"Plant response rating, Redroot pigweed",pigweed; [2],0
same,Redroot pigweed plant response rating,pigweed; [3],0
same,Redroot pigweed plant response rating,pigweed; [4],2
same,"Plant response rating, Redroot pigweed",pigweed; [5],4
same,Wild oats plant response rating,wild oat; [1],0
same,"Plant response rating, Wild oats",wild oat; [1],0
same,"Plant response rating, Wild oats",wild oat; [2],0
same,Wild oats plant response rating,wild oat; [3],0
same,Wild oats plant response rating,wild oat; [4],0
same,"Plant response rating, Wild oats",wild oat; [5],0
same,S. Flatsedge plant response rating,smallflower flatsedge; [6],0
same,"S. Flatsedge plant response rating (0 to 10 scale, 0 is no effect, 10 is complete control)",smallflower flatsedge; [7],0
same,S. Flatsedge plant response rating,smallflower flatsedge; [8],0
same,S. Flatsedge plant response rating,smallflower flatsedge; [9],0
same,Corn plant response rating,corn; [1],0
same,Corn plant response rating,corn; [5],0
same,"Plant response rating, Corn",corn; [1],0
same,"Plant response rating, Corn",corn; [10],0
same,"Plant response rating, Corn",corn; [2],0
same,Corn plant response rating,corn; [3],0
same,Corn plant response rating,corn; [4],0
same,"Plant response rating, Corn",corn; [5],0
same,Giant foxtail plant response rating,giant foxtail; [1],0
same,Giant foxtail plant response rating,giant foxtail; [5],7
same,"Plant response rating, Giant foxtail",giant foxtail; [1],0
same,"Plant response rating, Giant foxtail",giant foxtail; [2],4
same,Giant foxtail plant response rating,giant foxtail; [3],1
same,Giant foxtail plant response rating,giant foxtail; [4],6
same,"Plant response rating, Giant foxtail",giant foxtail; [5],6
same,Barnyardgrass plant response rating,bamyardgrass; [6],0
same,"Barnyardgrass plant response rating (0 to 10 scale, 0 is no effect, 10 is complete control)",bamyardgrass; [7],0
same,Barnyardgrass plant response rating,bamyardgrass; [8],0
same,Barnyardgrass plant response rating,bamyardgrass; [9],0
same,Blackgrass plant response rating,blackgrass; [1],0
same,Blackgrass plant response rating,blackgrass; [5],6
same,"Plant response rating, Blackgrass",blackgrass; [1],0
same,"Plant response rating, Blackgrass",blackgrass; [10],0
same,"Plant response rating, Blackgrass",blackgrass; [2],0
same,Blackgrass plant response rating,blackgrass; [3],0
same,Blackgrass plant response rating,blackgrass; [4],3
same,"Plant response rating, Blackgrass",blackgrass; [5],1
same,Rape plant response rating,rape; [1],0
same,Rape plant response rating,rape; [5],2
same,"Plant response rating, Rape",rape; [1],0
same,"Plant response rating, Rape",rape; [2],0
same,Rape plant response rating,rape; [3],0
same,Rape plant response rating,rape; [4],0
same,"Plant response rating, Rape",rape; [5],0
